“Also recorded” adds a separate entry of the source.
What was measured:
[1] = system: human Bach1; experiment: MARE controlled luciferase reporter gene assay in HepG2 cells with or without Bach1 expression; assay type: cell-based; settings: transient transfection, with or without Bach1 expressing plasmid, FIG. 7
Experimental: The ability of Compound 13 to act in a manner similar to CoPP provides evidence for the hypothesis that Bach1 activity is being modulated by the compounds. […] To that end, expression vectors were prepared which contained the HMOX1 mARE promoter element recognized by both Bach1 and Nrf2. This element was placed in control of the reporter gene luciferase. Under conditions of transient transfection of HepG2 cells, the reporter has a low level of basal activity due to the relative ratio of Bach1 and Nrf2 found in the cell. Co-transfection with a Bach1 expressing plasmid leads to repression of luciferase activity. Therefore, one can test whether the compounds can increase the level of luciferase in the cells, thus overcoming Bach1 repression. […] Thus, the tested compound is able to overcome suppression by additional Bach1.

[2] = system: NHLF cells; experiment: Cytoprotection of cisplatin (CDDP)-treated NHLF cells (propidium iodide staining); assay type: cell-based; settings: NHLF cells, compound 24 hours prior to cisplatin exposure, FIG. 8
Experimental: (§1) A key outcome of Bach1 derepression and Nrf2 activation are the induction of cytoprotective genes. A method to test such cytoprotection is to assess the ability of a compound to protect normal human cells such as lung fibroblasts from toxicity due to cisplatin exposure. A model of cellular cytoprotection was established whereby normal human lung fibroblasts were treated with Bach1 modulators and then subsequently exposed to cisplatin. NHLF cells are very sensitive to cisplatin exposure; following a dose of 200 uM cisplatin, >90% of NHLF cells are propidium iodide positive, a measure of cell death.

[3] = system: HMOX1; experiment: HMOX1 induction in NHLF cells in the cisplatin cytoprotection model; assay type: cell-based, human; settings: compound 24 hours prior to cisplatin, FIG. 8
Experimental: as §1

[4] = system: HMOX1; experiment: HMOX1 induction in human bone marrow-derived mesenchymal stem cells (Western blotting); assay type: cell-based; settings: BMMSC, 3 and 10 days of exposure, FIG. 9
Experimental: Previous work has shown that HMOX1 expression can suppress the differentiation of human bone marrow mesenchymal stem cells (BMMSC) into adipocytes, a process termed adipogenesis [Li et al., Diabetes 57(6):1526-1535 (2008)]. As such, we tested Bach1 modulators for the ability to suppress BMMSC differentiation into adipocytes in the presence of high glucose containing media. Two Bach1 modulators and a null compound were tested to determine the ability of the compounds to induce HMOX1 after 3 and 10 days of exposure to compound.

[5] = system: human bone marrow mesenchymal stem cells (BMMSC); experiment: Differentiation of bone marrow mesenchymal stem cells to adipocytes (Oil Red staining); assay type: cell-based; settings: high glucose, 21 days continuous exposure, FIG. 10
From the text: In this assay, the cells are continuously exposed to compound for 21 days and then tested for the presence of oil-Red staining lipid droplets.

[6] = system: NHLF cells; experiment: ROS measurements (H2DCF-DA imaging); assay type: cell-based, human; settings: 1 hr, cell-by-cell imaging, FIG. 3A/3B
Experimental: Secondary growth of NHLF cells were used for all assays. Cells were cultured as above. Cells were plated into 384-well BD-Optilux Plates at 2,000 cells/well and cultured overnight at 37° C. and 5% CO2. The following day, cell were washed and 2,7-dihydrodichlorofluorescin diacetate (H2DCF-DA), 10 μM ferric ammonium citrate (FAC), and Hoechst stain were added to cells for 30 min. The cells were washed once with PBS to remove any H2DCF-DA not taken up by cells. Test compounds were prepared in FBM-2 media at the desired concentrations. The plates and stain-treated cells were incubated with test compounds for 1 hr at 37° C. and 5% CO2. Following the incubation period, ROS generation was determined by imaging the cells on a GE INcell 1000 imager (Hoechst Ex. 360 Em. 535; H2DCF-DA 488 Ex. 480 Em. 535). ROS levels were determined and quantified using GE IN Cell Analyzer Software.
In addition to gene profiling, the requirement for ROS generation or chemical reactivity was tested. ROS generation was measured using an automated imaging technique. Compound 13 as well as two other compounds that were found in the screening set were tested in this experiment. Untreated NHLF cells, NHLF cells treated with the HMOX1 inducer CoPP (a negative control), and NHLF cells treated with curcumin or celestrol (positive controls) were included as controls. […] Further experiments were also conducted on chemical derivatives of Compound 13. In those experiments, all compounds tested were found not to induce an elevation of ROS levels in the cell (FIG. 3B). Thus, Compound 13 and related compounds represent a class of agents that elevate HMOX1 production without elevating ROS production.

[7] = system: HMOX1; experiment: Effect of NAC on compound induction of HMOX gene expression; assay type: cell-based, human; settings: NHLF cells pretreated with 5 mM NAC 1 hr, compound 6 h, FIG. 4
Experimental: NHLF cells were grown to 80% confluency and harvested by washing once with HEPES and then trypsinizing. Equal numbers (7×10^4 cells per well) of NHLF cells were plated in 96 well tissue culture (Corning) plates. Cells were incubated overnight in FGM-2 medium prior to exposure to compound. Cells were pretreated with 5 mM N-acetyl cysteine for 1 hr. Cells were treated with either DMSO or compound for 6 h. Preparation of cell lysates was carried out according to Quantigene Reagent system 2.0 protocol (Panomics). Heme oxygenase mRNA induction was detected from cell lysate using the Quantigene Plex 2.0 Assay Kit (Panomics) on the Luminex platform (BIO-RAD). Expression of GAPDH mRNA was used as the internal control for the Quantigen Plex 2.0 Assay. Heme oxygenase data represents the fold change, normalized to control values, above DMSO treated cells.
A further test of the hypothesis that Compound 13 induces HMOX1 with minimal alteration of cellular redox levels or chemical reactivity was carried out by treating cells with N-acetyl cysteine (NAC). This compound acts to restore cellular glutathione levels and thus prevent oxidative stress. The degree to which NAC can suppress HMOX1 induction is an indicator of the amount of chemical reactivity or ROS stress that a compound is imposing on the cell and thus activating phase II gene transcription. […] Coupled with the data shown in FIG. 3, it is concluded that Compound 13 induces HMOX1 with minimal elevation of ROS or NAC-sensitive chemical reactivity.

[8] = system: Nrf2; experiment: HMOX1 mRNA induction after Nrf2 siRNA silencing; assay type: cell-based, human; settings: NHLF cells, 50 nM siRNA 48 hours, FIG. 5
Experimental: Small interfering RNA targeting Nrf-2 (cat# SI03246614) or KEAP-1 (cat# SI03246439) were obtained from Qiagen at 20 nmol/tube. Negative control siRNA (cat#1027280) was also obtained from Qiagen. Lyophilized siRNA in each tube was resuspended with 1 ml of the provided siRNA Suspension Buffer to make a stock solution of 20 μM and tubes were heated at 90° C. for one minute and then at 37° C. for one hour prior to initial use.
Normal human lung fibroblasts were plated at 5000 cells/well in 96-well plates and allowed to attach. Prior to experiments, well s containing the cells were refreshed with 30 μl of complete growth medium. For each siRNA type, a 4× concentration (200 nM) of siRNA was prepared by adding 11 μl of siRNA stock into 1.1 ml of serum-free medium containing 9 μl/ml of SILENTFECT Lipid Reagent (BioRad, cat#170-3361). This solution was incubated at room temperature for 20 minutes prior to adding 10 μl into each well for a final concentration of 50 nM siRNA. Cells were incubated with siRNA for 48 hours, after which they were treated with compound for either 5 hours (QuantiGene RNA assay) or 15 hours (protein immunofluorescence assay).
The predicted response profile is that silencing of Nrf2 should reduce the amount of HMOX1 induction by Compound 13 and other HMOX1 inducers that are electrophiles or reactive compounds. To that end, Compound 13 and other tool compounds were tested in cells that were treated with siRNA directed to Nrf2. Following gene silencing with specific siRNA or control siRNA, the ability of tool compounds to induce HMOX1 mRNA was determined.

With CNC(=O)c1ccc2[nH]c(Nc3nc4ccc(OC(F)(F)F)cc4s3)nc2c1 [Compound 7, 2-(6-Trifluoromethoxy-benzothiazol-2-ylamino)-1H-benzoimidazole-5-carboxylic acid methylamide] the “luciferase activity of HMOX1 mARE reporter” value [1] was “able to induce luciferase activity in the presence or absence of Bach1 protein expression; also recorded: can overcome this repression”.

For CN(C)C(=O)CNC(=O)c1ccc2c(c1)nc(Nc1nc3ccc(OC(F)(F)F)cc3s1)n2C [Compound 9, 1-Methyl-2-(6-trifluoromethoxy-benzothiazol-2-ylamino)-1H-benzoimidazole-5-carboxylic acid dimethylcarbamoylmethyl-amide], the “protection against cisplatin toxicity” value [2] was “near-total cellular protection; also recorded: protect the cells from CDDP-mediated toxicity”, the HMOX1 induction [3] was “induced HMOX1” and the “HMOX1 induction by Western blotting” value [4] was “induced HMOX1”. For the same compound, the “inhibition of adipogenesis (Oil Red staining)” value (“inhibition of adipogenesis” below) [5] was “suppress Oil-O red staining; also recorded: inhibited stem cell differentiation”.

In the case of Cn1c(Nc2nc3ccc(OC(F)(F)F)cc3s2)nc2cc(C(=O)NCCOCCO)ccc21 [Compound 10, 1-Methyl-2-(6-trifluoromethoxy-benzothiazol-2-ylamino)-1H-benzoimidazole-5-carboxylic acid [2-(2-hydroxy-ethoxy)-ethyl]-amide], the “protection against cisplatin toxicity” value [2] is reported as “near-total cellular protection; also recorded: protect the cells from CDDP-mediated toxicity”, the HMOX1 induction [3] is reported as “induced HMOX1” and the “HMOX1 induction by Western blotting” value [4] is reported as “induced HMOX1”. The “inhibition of adipogenesis” value [5] was “suppress Oil-O red staining; also recorded: inhibited stem cell differentiation”.

Cn1c(Nc2nc3ccc(Cl)cc3s2)nc2cc(C(=O)NCC(=O)O)ccc21 [Compound 12, {[2-(6-Chloro-benzothiazol-2-ylamino)-1-methyl-1H-benzoimidazole-5-carbonyl]-amino}-acetic acid] was tested, and the “protection against cisplatin toxicity” value [2] was “failed to protect NHLF cells against cisplatin toxicity; also recorded: failed to protect cells from CDDP-mediated cytotoxicity”, the HMOX1 induction [3] was “inactive HMOX1 inducers; also recorded: did not induce HMOX1” and the “HMOX1 induction by Western blotting” value [4] was “failed to induce HMOX1”. For the same compound, the “inhibition of adipogenesis” value [5] was “fails to inhibit adipogenesis; also recorded: failed to do so”.

CC(C)(C)N1C(=O)C=C(c2cccc(N(CC(=O)c3ccc(Cl)cc3Cl)C(=O)Cc3ccc(Br)cc3)c2)S1(=O)=O [Compound 14, 2-(4-Bromo-phenyl)-N-[3-(2-tert-butyl-1,1,3-trioxo-2,3-dihydro-1H-isothiazol-5-yl)-phenyl]-N-[2-(2,4-dichloro-phenyl)-2-oxo-ethyl]-acetamide] was tested, and the “ROS production (in words)” value [6] was “elevated ROS levels to a greater degree than did Compound 13; also recorded: little increase in ROS production”, the “effect of N-acetyl cysteine (NAC) on HMOX1 induction” value [7] was “inhibited nearly fully by NAC; also recorded: fully suppressed in the presence of NAC” and the “HMOX1 mRNA induction with siRNA directed to Nrf2” value [8] was “affected by the presence of the siRNA for Nrf2; also recorded: requires Nrf2 for full induction of HMOX1 mRNA”.

For CC(C)(C)N1C(=O)C=C(c2cccc(-n3cc(-c4ccc(Cl)cc4Cl)nc3Cc3ccc(Br)cc3)c2)S1(=O)=O [Compound 15, 5-{3-[2-(4-Bromo-benzyl)-4-(2,4-dichloro-phenyl)-imidazol-1-yl]-phenyl}-2-tert-butyl-1,1-dioxo-1,2-dihydro-isothiazol-3-one], the “ROS production (in words)” value [6] was “elevated ROS levels to a greater degree than did Compound 13; also recorded: little increase in ROS production”, the “effect of N-acetyl cysteine (NAC) on HMOX1 induction” value [7] was “inhibited nearly fully by NAC; also recorded: fully suppressed in the presence of NAC” and the “HMOX1 mRNA induction with siRNA directed to Nrf2” value [8] was “affected by the presence of the siRNA for Nrf2; also recorded: requires Nrf2 for full induction of HMOX1 mRNA”.
